These results are taken from patent US6821986B2, “Amino acid derivatives and their use as medicines” (Societe de Conseils de Recherchet et E'Applications …, priority 2000, dated 2004).

Bounds are passed on as bounds.

For assay [1], the system named is HT-22 cells. In words: Protection of HT-22 cells from oxidation stress induced by glutamate (MTT viability). The class given is cell-based. The note with it: Mus musculus, glutamate 5 mM, cell viability after 24 h by MTT. On the procedure:
Study of the Effects on the Oxidation Stress Induced by Glutamate on Cells in Culture (HT-22).
The inhibitory activity of the products of the invention is determined by measuring their ability to protect the cells of a mouse hippocampal line (HT-22) from an oxidation stress caused by glutamate. The biosynthesis of glutathione, an essential element of cell detoxification of free radicals, requires the active transport of cystine to the interior of the cell. The glutamate by opposing the penetration of cystine causes a reduction in the level of glutathione which leads to the death of the cell due to oxidation stress (Demerlé-Pallardy, C. et al., J. Neurochem. (2000) 74, 2079-2086; Murphy, T. H. et al., Neuron, (1989) 2: 1547-1558). The cells are cultured at 37° C. in a DMEM medium with 10% of foetal calf serum added to it. The tests are carried out in 96-well plates containing 5000 cells per well. The glutamate (5 mM) is added to the medium containing or not containing the products to be tested. The cell viability is tested after 24 h by the MTT method (Hansen, M. B. et al., J Immunol. Methods (1989), 119, 203-210). The ability of the compounds to protect the cells from the toxic action of the glutamate is estimated in EC50, calculated relative to the viability of cells which have not been subjected to the action of glutamate considered as 100% viability.

The target of assay [2] is T1, neuronal constitutive NO synthase (Rattus norvegicus, UniProt P29476).
T1 construct: The reaction is initiated by adding 50 μl of homogenate; from tissue; host or cells: cerebellum of Sprague-Dawley rats (homogenate, centrifuged at 21000 g)
Kind of assay: Effects on neuronal constitutive NO synthase of a rat's cerebellum ([3H]L-arginine to [3H]L-citrulline conversion). The class given is biochemical. The note with it: rat cerebellum homogenate, conversion of [3H]L-arginine to [3H]L-citrulline, 15 min. As for the experimental part:
Study of the Effects on Neuronal Constitutive NO Synthase of a Rat's Cerebellum
The inhibitory activity of the products of the invention is determined by measuring their effects on the conversion by NO synthase of [^3H]L-arginine to [^3H]L-citrulline according to the modified method of Bredt and Snyder (Proc. Natl. Acad. Sci. USA, (1990) 87: 682-685). The cerebellums of Sprague-Dawley rats (300 g-Charles River) are rapidly removed, dissected at 4° C. and homogenized in a volume of extraction buffer (HEPES 50 mM, EDTA 1 mM, pH 7.4, pepstatin A […], leupeptin […]). The homogenates are then centrifuged at 21000 g for 15 min at 4° C. Dosage is carried out in glass test tubes in which 100 μl of incubation buffer containing 100 mM of HEPES (pH 7.4), 2 mM of EDTA, 2.5 mM of CaCl2, 2 mM of dithiotreitol, 2 mM of reduced NADPH and 10 μg/ml of calmodulin are distributed. 25 μl of a solution containing 100 nM of [^3H]L-arginine (Specific activity: 56.4 Ci/mmole, Amersham) and 40 μM of non-radioactive L-arginine is added. The reaction is initiated by adding 50 μl of homogenate, the final volume being 200 μl (the missing 25 μl are either water or the tested product). […] After passing the samples through a 1 ml column of DOWEX resin, the radioactivity is quantified by a liquid scintillation spectrometer.

One may read the EC50 as the concentration needed to bring the measured effect to its halfway point. Higher therefore signals a need for much substance. The IC50 is the concentration that inhibits the measured activity by half. Read a high IC50 as weaker potency in that assay. In assay [1], `CN1CCc2cc(NC(=O)[C@@H](N)CCCNC(=N)N[N+](=O)[O-])ccc21` [Example 2, (2S)-2-amino-5-{[imino(2-oxido-2-oxohydrazino)methyl]amino}-N-(1-methyl-2,3-dihydro-1H-indol-5-yl)pentanamide] returned an EC50 of under 25 µM. Besides, the IC50 in assay [2] is under 10 µM.

Regarding `N=C(NCCC[C@H](N)C(=O)Nc1ccc(Nc2ccccc2)cc1)N[N+](=O)[O-]` [Example 1, (2S)-2-amino-N-(4-anilinophenyl)-5-{[imino(2-oxido-2-oxohydrazino)methyl]amino}pentanamide], the EC50 in assay [1] is under 25 µM. The compound also yielded an IC50 in assay [2] of under 10 µM.
